Like-named read-outs stand apart in the source and are kept apart here.
Legend:
[1] = molecular target: KRAS G12D (Homo sapiens (Human), UniProt P01116, G12D); assay: KRAS G12D LoEnz Biochemical Assay, BODIPY-GDP Exchange TR-FRET (SOS1-mediated nucleotide exchange); conditions: read-out: KRas (G12D) GDP HTRF IC50
[2] = molecular target: KRAS WT (Homo sapiens (Human), UniProt P01116); assay: KRAS WT Biochemical Assay, BODIPY-GDP Exchange TR-FRET (Example 501; 3 nM KRAS WT, 3 nM SOS1, 60-minute incubation)
Method in brief: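 SOS1-mediated exchange assay: 3 nM biotin-KRAS WT with terbium-streptavidin, started with 3 nM SOS1 and 300 nM BODIPY-GDP, HEPES pH 7.5 with MgCl2. TR-FRET (520/490 nm) read after 60 min; normalized to DMSO and full-inhibition control, IC50 from 4-parameter Hill fit.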

[3] = read-out: KRas(wt) GDP HTRF IC50

Chain of KRAS WT (P01116-2 other isoform, or with tags, fused parts or gaps): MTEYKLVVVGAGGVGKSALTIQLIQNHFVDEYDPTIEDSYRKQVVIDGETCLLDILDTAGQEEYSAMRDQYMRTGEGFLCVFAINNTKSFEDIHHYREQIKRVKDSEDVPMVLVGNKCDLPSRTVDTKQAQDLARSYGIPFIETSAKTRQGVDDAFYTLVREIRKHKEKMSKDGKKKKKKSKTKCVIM
Chain of KRAS G12D (P01116-2 other isoform, or with tags, fused parts or gaps G12D): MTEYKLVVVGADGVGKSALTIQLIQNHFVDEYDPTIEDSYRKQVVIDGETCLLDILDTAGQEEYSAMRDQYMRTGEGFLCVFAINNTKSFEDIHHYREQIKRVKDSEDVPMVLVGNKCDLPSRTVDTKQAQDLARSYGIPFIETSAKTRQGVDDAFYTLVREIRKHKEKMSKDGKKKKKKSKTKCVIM

Compound | IC50 [1] [nM] | IC50 [2, 3] [nM] | IC50 ([2]; read-out: KRas HTRF IC50) [nM]
Cc1cc(N)c(F)c(-c2nc3c4c(nc(OC[C@@]56CCCN5C[C@H](F)C6)nc4c2F)N2C[C@H]4CC[C@H](N4)[C@H]2CO3)c1C(F)(F)F [Compound 36, 2-fluoro-3-((5aS,6S,9R)-1-fluoro-12-(((2R,7aS)-2-fluorotetrahydro-1H-pyrrolizin-7a(5H)-yl)methoxy)-5a,6,7,8,9,10-hexahydro-5H-4-oxa-3,10a,11,13,14-pentaaza-6,9-methanonaphtho[1,8-ab]heptalen-2-yl)-5-methyl-4-(trifluoromethyl)aniline] | 0.98 | 46.5 | –
CO[C@@H]1CCN(CC2(COc3nc4c5c(nc(-c6cc(N)nc(C)c6C(F)(F)F)c(F)c5n3)O[C@@H](C)[C@@H]3[C@@H]5CC[C@H](CN43)N5)CC2)C[C@@H]1F [Compound 275, 4-((5S,5aS,6S,9R)-1-fluoro-12-((1-(((3S,4R)-3-fluoro-4-methoxypiperidin-1-yl)methyl)cyclopropyl)methoxy)-5-methyl-5a,6,7,8,9,10-hexahydro-5H-4-oxa-3,10a,11,13,14-pentaaza-6,9-methanonaphtho[1,8-ab]heptalene-2-yl)-6-methyl-5-(trifluoromethyl)pyridin-2-amine] | 0.48 | – | 23.3
CCc1cccc2cc(O)cc(-c3nc4c5c(nc(OC[C@@]67CCCN6C[C@H](F)C7)nc5c3F)N3C[C@H]5CC[C@H](N5)[C@H]3CO4)c12 [Compound 5, 5-ethyl-4-((5aS,6S,9R)-1-fluoro-12-(((2R,7aS)-2-fluorotetrahydro-1H-pyrrolizin-7a(5H)-yl)methoxy)-5a,6,7,8,9,10-hexahydro-5H-4-oxa-3,10a,11,13,14-pentaaza-6,9-methanonaphtho[1,8-ab]heptalen-2-yl)naphthalen-2-ol] | 0.06 | 2.12 | –
Cc1c(F)c(N)cc(-c2nc3c4c(nc(OCC5(CN6CCOCC6)CC5)nc4c2F)N2C[C@H]4CC[C@H](N4)[C@H]2[C@H](C(F)(F)F)O3)c1C(F)(F)F [Compound 249, 2-Fluoro-5-((5R,5aS,6S,9R)-1-fluoro-12-((1-(morpholinomethyl)cyclopropyl)methoxy)-5-(trifluoromethyl)-5a,6,7,8,9,10-hexahydro-5H-4-oxa-3,10a,11,13,14-pentaaza-6,9-methanonaphtho[1,8-ab]heptalene-2-yl)-3-methyl-4-(trifluoromethyl)aniline] | 0.22 | – | 1.37
C#Cc1cccc2cncc(-c3nc4c5c(nc(OC[C@@]67CCCN6CC6(CC6(F)F)C7)nc5c3F)N3C[C@H]5CC[C@H](N5)[C@H]3[C@H](C)O4)c12 (stereo partly drawn) [Compound 40, (5S,5aS,6S,9R)-12-(((7a′S)-2,2-difluorodihydro-1′H,3′H-spiro[cyclopropane-1,2′-pyrrolizin]-7a′(5′H)-yl)methoxy)-2-(5-ethynylisoquinolin-4-yl)-1-fluoro-5-methyl-5a,6,7,8,9,10-hexahydro-5H-4-oxa-3,10a,11,13,14-pentaaza-6,9-methanonaphtho[1,8-ab]heptalene] | 1.3 | 86.8 | –
Cc1c(F)c(N)c(F)c(-c2nc3c4c(nc(OCC5(CN6CCOCC6)CC5)nc4c2F)N2C[C@H]4CC[C@H](N4)[C@H]2[C@H](C)O3)c1C(F)(F)F [Compound 224, 2,6-Difluoro-3-((5S,5aS,6S,9R)-1-fluoro-5-methyl-12-((1-(morpholinomethyl)cyclopropyl)methoxy)-5a,6,7,8,9,10-hexahydro-5H-4-oxa-3,10a,11,13,14-pentaaza-6,9-methanonaphtho[1,8-ab]heptalen-2-yl)-5-methyl-4-(trifluoromethyl)aniline] | 0.18 | – | 12
C[C@@H]1Oc2nc(-c3cc(N)c(F)cc3C(F)(F)F)c(F)c3nc(OC[C@@]45CCCN4C[C@H](F)C5)nc(c23)N2C[C@H]3CC[C@H](N3)[C@@H]12 [Compound 14, 2-fluoro-5-((5S,5aS,6S,9R)-1-fluoro-12-(((2R,7aS)-2-fluorotetrahydro-1H-pyrrolizin-7a(5H)-yl)methoxy)-5-methyl-5a,6,7,8,9,10-hexahydro-5H-4-oxa-3,10a,11,13,14-pentaaza-6,9-methanonaphtho[1,8-ab]heptalen-2-yl)-4-(trifluoromethyl)aniline] | 0.26 | 6.58 | –
C[C@@H]1Oc2nc(-c3cccc4cccc(Cl)c34)c(F)c3nc(OC[C@@]45CCCN4CC4(CC4(F)F)C5)nc(c23)N2C[C@H]3CC[C@H](N3)[C@@H]12 (stereo partly drawn) [Compound 27, (5S,5aS,6S,9R)-2-(8-chloronaphthalen-1-yl)-12-(((7a′S)-2,2-difluorodihydro-1′H,3′H-spiro[cyclopropane-1,2′-pyrrolizin]-7a′(5′H)-yl)methoxy)-1-fluoro-5-methyl-5a,6,7,8,9,10-hexahydro-5H-4-oxa-3,10a,11,13,14-pentaaza-6,9-methanonaphtho[1,8-ab]heptalene] | 0.72 | 65.2 | –
COC1(CF)CN(CC2(COc3nc4c5c(nc(-c6cc(N)nc(C)c6C(F)(F)F)c(F)c5n3)O[C@@H](C)[C@@H]3[C@@H]5CC[C@H](CN43)N5)CC2)C1 [Compound 272, 4-((5S,5aS,6S,9R)-1-fluoro-12-((1-((3-(fluoromethyl)-3-methoxyazetidin-1-yl)methyl)cyclopropyl)methoxy)-5-methyl-5a,6,7,8,9,10-hexahydro-5H-4-oxa-3,10a,11,13,14-pentaaza-6,9-methanonaphtho[1,8-ab]heptalene-2-yl)-6-methyl-5-(trifluoromethyl)pyridin-2-amine] | 0.38 | – | 24.4
Cc1c(F)c(N)cc(-c2nc3c4c(nc(OC[C@@]56CCCN5C[C@H](F)C6)nc4c2F)N2C[C@H]4CC[C@H](N4)[C@H]2[C@H](C(F)(F)F)O3)c1CC(F)F [Compound 250, 4-(2,2-Difluoroethyl)-2-fluoro-5-((5R,5aS,6S,9R)-1-fluoro-12-(((2R,7aS)-2-fluorotetrahydro-1H-pyrrolizin-7a(5H)-yl)methoxy)-5-(trifluoromethyl)-5a,6,7,8,9,10-hexahydro-5H-4-oxa-3,10a,11,13,14-pentaaza-6,9-methanonaphtho[1,8-ab]heptalene-2-yl)-3-methylaniline] | 0.39 | – | 13.6
Cc1nc(N)cc(-c2nc3c4c(nc(OCC5(CN6CCOC(C(F)(F)F)C6)CC5)nc4c2F)N2C[C@H]4CC[C@H](N4)[C@H]2[C@H](C)O3)c1C(F)(F)F (stereo partly drawn) [Compound 267, 4-((5S,5aS,6S,9R)-1-fluoro-5-methyl-12-((1-((2-(trifluoromethyl)morpholino)methyl)cyclopropyl)methoxy)-5a,6,7,8,9,10-hexahydro-5H-4-oxa-3,10a,11,13,14-pentaaza-6,9-methanonaphtho[1,8-ab]heptalene-2-yl)-6-methyl-5-(trifluoromethyl)pyridin-2-amine] | 2.98 | – | 609
Cc1nc(N)cc(-c2nc3c4c(nc(OCC5(CN6C[C@H](F)C[C@H](F)C6)CC5)nc4c2F)N2C[C@H]4CC[C@H](N4)[C@H]2[C@H](C)O3)c1C(F)(F)F [Compound 269, 4-((5S,5aS,6S,9R)-12-((1-(((3S,5R)-3,5-difluoropiperidin-1-yl)methyl)cyclopropyl)methoxy)-1-fluoro-5-methyl-5a,6,7,8,9,10-hexahydro-5H-4-oxa-3,10a,11,13,14-pentaaza-6,9-methanonaphtho[1,8-ab]heptalene-2-yl)-6-methyl-5-(trifluoromethyl)pyridin-2-amine] | 0.42 | – | 105
Cc1nc(N)c(F)c(-c2nc3c4c(nc(OCC5(CN6C[C@H]7C[C@@H]6CO7)CC5)nc4c2F)N2C[C@H]4CC[C@H](N4)[C@H]2[C@H](C)O3)c1C(F)(F)F [Compound 223, 4-((5S,5aS,6S,9R)-12-((1-(((1R,4R)-2-Oxa-5-azabicyclo[2.2.1]heptan-5-yl)methyl)cyclopropyl)methoxy)-1-fluoro-5-methyl-5a,6,7,8,9,10-hexahydro-5H-4-oxa-3,10a,11,13,14-pentaaza-6,9-methanonaphtho[1,8-ab]heptalene-2-yl)-3-fluoro-6-methyl-5-(trifluoromethyl)pyridin-2-amine] | 3.39 | – | 51.3
C[C@@H]1Oc2nc(-c3cc(N)c(F)c(Cl)c3CC(F)F)c(F)c3nc(OC[C@@]45CCCN4C[C@H](F)C5)nc(c23)N2C[C@H]3CC[C@H](N3)[C@@H]12 [Compound 186, 3-Chloro-4-(2,2-difluoroethyl)-2-fluoro-5-((5S,5aS,6S,9R)-1-fluoro-12-(((2R,7aS)-2-fluorotetrahydro-1H-pyrrolizin-7a(5H)-yl)methoxy)-5-methyl-5a,6,7,8,9,10-hexahydro-5H-4-oxa-3,10a,11,13,14-pentaaza-6,9-methanonaphtho[1,8-ab]heptalene-2-yl)aniline] | 0.1 | – | 5.61
Cc1nc(N)cc(-c2nc3c4c(nc(OCC56CCCN5CC(F)C6)nc4c2F)N2CC4CCC(N4)[C@H]2[C@@H](C(F)(F)F)O3)c1C(F)(F)F (stereo in doubt) [Compound 243, 4-((6R,9S)-1-fluoro-12-(((2S,7aR)-2-fluorotetrahydro-1H-pyrrolizin-7a(5H)-yl)methoxy)-5-(trifluoromethyl)-5a,6,7,8,9,10-hexahydro-5H-4-oxa-3,10a,11,13,14-pentaaza-6,9-methanonaphtho[1,8-ab]heptalene-2-yl)-6-methyl-5-(trifluoromethyl)pyridin-2-amine] | 581 | – | 3960
CCc1c(F)c(N)cc(-c2nc3c4c(nc(OC[C@@H]5CC[C@H]6COCCN65)nc4c2F)N2C[C@H]4CC[C@H](N4)[C@H]2[C@H](C)O3)c1C(F)(F)F [Compound 232, 3-Ethyl-2-fluoro-5-((5S,5aS,6S,9R)-1-fluoro-12-(((6S,8aS)-hexahydro-1H-pyrrolo[2,1-c][1,4]oxazin-6-yl)methoxy)-5-methyl-5a,6,7,8,9,10-hexahydro-5H-4-oxa-3,10a,11,13,14-pentaaza-6,9-methanonaphtho[1,8-ab]heptalen-2-yl)-4-(trifluoromethyl)aniline] | 2.86 | – | 277

Source: patent publication US20240025919A1, “AZA-TETRACYCLIC OXAZEPINE COMPOUNDS AND USES THEREOF” (Genentech, Inc., priority 2022, published 2024)
